Measurements taken from patent publication US20040116523A1, “Use of c4-c10 acids for preventing gram-negative bacterial infections” (priority 2000, published 2004).

Legend:
S. typhi = settings: 0.25 g/l; cited from earlier work
Shigella sonnei = settings: 0.25 g/l; cited from earlier work
[1] = test system: Gram-positive or Gram-negative bacteria; settings: in vitro, concentration not given; cited from earlier work
Vibrio cholerae = settings: 0.25 g/l; cited from earlier work
[2] = test system: iagA′-lacZ fusion (S. typhi strain Ty267); experiment: β-galactosidase activity of the iagA′-lacZ fusion in favourable LB medium; format: cell-based
[3] = test system: iagA′-lacZcat fusion in S. typhi strain Ty267; experiment: "Biotype 100" plate screen for carbon-based substrates that repress the iagA′-lacZcat fusion (β-galactosidase activity); format: cell-based; settings: "Biotype 100" cupule, amount of substrate not known; favourable LB medium; 36 hours at 37° C.; control cupule without substrate 11 250
Protocol: (§1) Each of the strains described above was cultured at 37° C. on agar or in TCS broth. The P-galactosidase activity was determined using 4-methyl-umbelliferyl-p-D-galactopyranoside sold by the company Sigma, according to the technique of Klarsfeld et al. (Mol. Mibrobiol., 1994, 13, 585-597). The results, expressed in P-galactosidase units (fluorescence per hour and per OD600), represent the mean of the values obtained in at least three independent experiments. The standard deviations were less than 10% of the values presented.
A “Biotype 100”® plate sold by the company BioMerieux is composed of 100 microcupules. Each micro-cupule contains a dehydrated carbon-based substrate, with the exception of the first cupule, which is a control without substrate (the amount of dehydrated substrate per cupule is not given by the manufacturer).
In the context of the present example, these plates were used to search for carbon-based compounds which would block the expression of the invasion genes in Salmonella.
For this, the S. typhi strain Ty267, which is a derivative of the parental strain Ty2 carrying the iagA′-lacZcat transcriptional fusion (Table I), was cultured in TCS broth for 18 hours at 37° C. with shaking (200 rpm).
This culture was then diluted 100-fold in favourable LB medium (0.6 ml of culture for 60 ml of favourable LB), and then this suspension was used immediately to seed the 100 cupules of a “Biotype 100”® plate, in a proportion of 450 μl of suspension per cupule.
After incubation for 36 hours in an incubator at 37° C., the activity of the iagA′-lacZcat fusion in the Ty267 strain was determined for the culture of each cupule.
By comparing the value of the P-galactosidase activity measured in a cupule containing a carbon-based substrate with that of the control cupule without substrate, it was possible to investigate whether a substrate had no effect on, activated or repressed the expression of the iagA′-lacZcat fusion.
The S. typhi strain Ty267 (iagA′-lacZ fusion), suspended in the favourable LB medium, was used to seed the “Biotype 100”® plates.
The β-galactosidase activity expressed by the iagA′-lacZ fusion was determined for the culture in each cupule. With respect to the β-galactosidase activity measured in the control cupule without substrate (11 250 β-galactosidase units), no substrate caused an increase in the expression of the iagA′-lacZ fusion.

[4] = test system: iagA′-lacZ fusion (S. typhi strain Ty267); experiment: β-galactosidase activity of the iagA′-lacZ fusion in favourable LB medium; format: cell-based; settings: 5 mM in favourable LB medium, 6 hours at 37° C.
Protocol: (§2) The favourable LB medium (high osmolarity and concentration of Ca^2+ions) was defined as being the standard LB medium modified so as to have a final NaCl concentration of 300 mM and a final Ca concentration of 5 mM.
as §1, with “presented. […]” for “presented.”
The β-galactosidase activity of the iagA′-lacZ fusion was measured after incubation for 6 hours at 37° C. with shaking (200 rpm).
The S. typhi Ty267 strain (iagA′-lacZ fusion) was seeded into favourable LB medium and into favourable LB medium containing the fatty acid to be tested, in the form of its sodium salt, at the final concentration of 5 mM.

[5] = test system: sipB′-lacZ fusion (S. typhi strain Ty277); experiment: β-galactosidase activity of the sipB′-lacZ fusion in favourable LB medium; format: cell-based
Protocol: as §2, §1
(§3) For this, the S. typhi strains Ty267, Ty272 and Ty277, which carry the iagA′-lacZ, invF′-lacZ and sipB′-lacZ fusions, respectively, (see Table I), were cultured in the favourable LB or unfavourable LB medium.
(§4) The action of these two compounds on the expression of the iagA′-lacZ, invF′-lacZ and sipB′-lacZ fusions was studied by measuring the β-galactosidase activity expressed by these fusions as a function of the time of culturing (samples removed every two hours).

[6] = test system: tviB′-lacZ fusion (S. typhi strain Ty266); experiment: β-galactosidase activity of the tviB′-lacZ fusion (specificity control); format: cell-based; settings: 5 mM in favourable LB medium
Protocol: as §1
The tviB gene has been characterized in S. typhi, and it encodes a GDP-dehydrogenase involved in the biosynthesis of the Vi antigen, which is the capsular polysaccharide of the typhus bacillus (Waxin et al., Res. Microbiol., 1993, 144, 363-371).
The results are reported on FIG. 4, in which it is seen that samples were taken every two hours in order to measure the OD600 (corresponding to the open symbols) and in order to determine the β-galactosidase activity (corresponding to the solid symbols).

Salmonellae = experiment: Bactericidal or bacteriostatic effect on the Salmonellae at neutral pH; format: cell-based, Salmonella
S. typhimurium C52 = experiment: Splenic colonization of C57Bl/6 mice infected orally with S. typhimurium C52; format: in vivo
Protocol: The 5-6-week-old female C57Bl/6 mice used in the context of this experiment originated from the IFFA-CREDO breeding centre (LArbresle, France).
They were infected orally in the following way. The Salmonella strains were cultured in TCS broth for 18 hours at 37° C. with shaking (200 rpm). This culture was then adjusted to […] (in the stationary growth phase, 1 OD600 =1.5 ×10^9 bacteria/ml), and then the number of viable bacteria was controlled by counting on TCS agar.
On the day of infection (DO), the drinking-water bottles of the mice were replaced with bottles containing 100 ml of drinking water to which the required number of bacteria had been added.
After infection for 24 hours ([…]), the bottles containing the contaminated drinking water were replaced with bottles containing uncontaminated drinking water.
Seven days after infection (D+7), the spleens of the mice infected in this way were removed and homogenized separately in 1 ml of physiological saline containing 0.7% of NaCl.
The number of viable bacteria per spleen was determined by plating out dilutions of the homogenate, onto TCS agar.
The effect of the composition of the drinking water on the splenic colonization by Salmonella was estimated using the Student's t test.
The S. typhimurium strain C52 was used to infect C57Bl/6 mice orally.
On this figure, the number of viable bacteria is given as the mean (log10) of the values ± the standard deviation. […]

[7] = test system: invF′-lacZ fusion (S. typhi strain Ty272); experiment: β-galactosidase activity of the invF′-lacZ fusion in favourable LB medium; format: cell-based
Protocol: as §2, §1, §3, §4

S. typhi strain Ty2 = experiment: Mobility by the U-tube culturing technique; format: cell-based; settings: U tube supplemented with 5 mM
Protocol: The mobility of each strain was studied using the U-tube culturing technique (Popoff and Le Minor, Guide pour la preparation des serum anti-Salmonella (Guide for preparing salmonella antisera], 1997). When necessary, the culture media were supplemented with chloramphenicol (Cm) at 15 μg/ml.

[8] = concentration greater than or equal to 2.5 mM, favourable LB medium

SMILES | bactericidal activity in vitro on S. typhi (S. typhi) | bactericidal activity in vitro on Shigella sonnei (Shigella sonnei) | bacteriostatic or bactericidal effect on Gram-positive or Gram-negative bacteria [1] | bactericidal activity in vitro on Vibrio cholerae (Vibrio cholerae) | decrease of the activity of the iagA′-lacZ fusion with respect to favourable LB medium without the substance ([2]; 1 mM in favourable LB medium) [%] | expression of the iagA gene (iagA′-lacZ fusion) [2, 8] | β-galactosidase activity expressed by the iagA′-lacZ fusion in the cupule [3] | β-galactosidase activity of the iagA′-lacZ fusion (Table II) ([4]; control 12134 ± 1811) | inhibition of the expression of the iagA′-lacZ fusion in S. typhi (in words) ([4]; sodium salt) | decrease of the activity of the sipB′-lacZ fusion with respect to favourable LB medium without the substance ([5]; 1 mM in favourable LB medium) [%] | expression of the sipB gene (sipB′-lacZ fusion) [5, 8] | effect on the expression of the tviB′-lacZ fusion [6] | bactericidal or bacteriostatic effect on the Salmonellae (Salmonellae) | effect on the level of splenic colonization / protection (in words) (S. typhimurium C52; 50 mM (EDTA 10 mM) in drinking water, 5 × 10^7 bacteria orally) | Number of viable bacteria in the spleen (mean log10) (Table III) (S. typhimurium C52; 50 mM each (EDTA 10 mM) in drinking water pH 7.2-7.3 from two days before infection, 5 × 10^7 bacteria (125 LD50) orally, D+7, distilled water 7.9 ± 0.3) [log10] | decrease of the activity of the invF′-lacZ fusion with respect to favourable LB medium without the substance ([7]; 1 mM in favourable LB medium) [%] | expression of the invF gene (invF′-lacZ fusion) [7, 8] | mobility of the Ty2 strain (S. typhi strain Ty2)
CCCCCCCCCCCC(=O)O [lauric acid] | bactericidal activity | bactericidal activity | very effective | bactericidal activity |  |  |  |  |  |  |  |  |  |  |  |  |  | 
O=C([O-])c1ccccc1.[Na+] [sodium benzoate] |  |  |  |  | 50 | very strongly represses | 245 β-galactosidase units | 190 ± 17 β-galactosidase units | inhibit | 50 | very strongly represses | no significant effect | none of these compounds has any significant bactericidal or bacteriostatic effect | no effect | 7.8 ± 0.8 | 50 | very strongly represses | same mobility
